Molecules are shown by their SMILES. ≈ marks a conversion by molar mass, not a printed value. Where only a bound is given, the exact number is not on record here.

Holding throughout (assay): ≥ marks a high value that may be exact or a test limit, other limits are often not marked, values filed in µg/mL are converted to µM
Assay [1] relates to Staphylococcus aureus JC-1.
In assay [2] the test system is Bacillus megaterium Bm11.
The subject of assay [3] is Proteus vulgaris OX19 ATCC 6380.
The subject of assay [4] is Pseudomonas aeruginosa OT97.
Assay [5] has as its system Shigella flexneri ATCC 203.
Assay [6] deals with Escherichia coli D21.
For assay [7], the system named is Micrococcus luteus Ml11.
In assay [8] the test system is Bacillus subtilis ATCC 6633.
Assay [9] deals with Enterococcus faecalis.
Assay [10] has as its system Streptococcus sobrinus ATCC 33478.
Assay [11] deals with Pseudomonas aeruginosa PAK.
The subject of assay [12] is Staphylococcus aureus.
For assay [13], the system named is Streptococcus mutans UA159.
Assay [14] deals with Streptococcus sanguinis NY101.
Assay [15] relates to Escherichia coli W3110.
In assay [16] the test system is Corynebacterium glutamicum ATCC 13032.
Assay [17] deals with Vibrio anguillarum FT1801.
Assay [18] relates to Escherichia coli HB101.
Assay [19] concerns Escherichia coli ATCC 25922.
The subject of assay [20] is Pseudomonas aeruginosa ATCC 27853.
Assay [21] concerns Staphylococcus aureus ATCC 9144.
Assay [22] relates to Agrobacterium tumefaciens ATCC 15955.
Assay [23] relates to Escherichia coli DC2.
Assay [24] relates to Salmonella enterica subsp. enterica serovar Typhimurium ATCC 700408.
In assay [25] the test system is Escherichia coli 45849.
The subject of assay [26] is Escherichia coli D31.
The subject of assay [27] is Escherichia coli BL21AI.
The subject of assay [28] is Salmonella enterica subsp. enterica serovar Typhi S5.
Assay [29] has as its system Klebsiella pneumoniae 123132.
For assay [30], the system named is Escherichia coli DSM 1103.
Assay [31] deals with Micrococcus luteus ATCC 10240.
For assay [32], the system named is Klebsiella pneumoniae K6 ATCC 700603.
Assay [33] relates to Klebsiella pneumoniae DSM 681.
In assay [34] the test system is Proteus mirabilis.
Assay [35] concerns Staphylococcus aureus ATCC 25923.
The subject of assay [36] is Staphylococcus epidermidis.
The test system of assay [37] is Streptococcus pyogenes.
For assay [38], the system named is Stenotrophomonas maltophilia ATCC 13637.
Assay [39] has as its system Candida albicans ATCC 90112.

Turning to `CC[C@H](C)[C@H](NC(=O)[C@@H]1CCCN1C(=O)[C@H](CCCN=C(N)N)NC(=O)[C@@H]1CCCN1C(=O)[C@H](CCCN=C(N)N)NC(=O)[C@H](Cc1ccc(O)cc1)NC(=O)[C@H](CC(N)=O)NC(=O)[C@@H]1CCCN1C(=O)[C@H](CCCN=C(N)N)NC(=O)[C@@H]1CCCN1C(=O)[C@@H](N)CCCN=C(N)N)C(=O)N[C@@H](Cc1ccc(O)cc1)C(=O)N[C@@H](CCCN=C(N)N)C(=O)N1CCC[C@H]1C(N)=O` [RPRPNYRPRPIYRP], the MIC (in general, the smallest concentration in the dilution series that meets the test's criterion for growth inhibition) in [1] stood at 4.24 µM (≈ 7.8 µg/mL); in assay [2] it was 1.03 µM (≈ 1.9 µg/mL); in assay [3] it was 4.24 µM (≈ 7.8 µg/mL); in [4], 4.24 µM (≈ 7.8 µg/mL); in assay [5], 0.533 µM (≈ 0.98 µg/mL); in assay [6] it was 2.12 µM (≈ 3.9 µg/mL). The MIC in [7] came to 5.44 µM (≈ 9.99 µg/mL); in assay [8], 1.06 µM (≈ 1.95 µg/mL).

Turning to `CC[C@H](C)[C@H](NC(=O)[C@H](Cc1ccccc1)NC(=O)[C@H](Cc1cnc[nH]1)NC(=O)[C@H](CCCCN)NC(=O)[C@@H](NC(=O)[C@H](Cc1ccccc1)NC(=O)[C@@H](NC(=O)[C@H](C)NC(=O)[C@H](CO)NC(=O)[C@H](Cc1ccccc1)NC(=O)[C@H](Cc1cnc[nH]1)NC(=O)[C@H](CC(C)C)NC(=O)[C@H](Cc1cnc[nH]1)NC(=O)[C@H](Cc1ccccc1)NC(=O)[C@H](Cc1cnc[nH]1)NC(=O)[C@@H](N)Cc1ccccc1)[C@@H](C)O)[C@@H](C)CC)C(=O)N[C@@H](Cc1cnc[nH]1)C(=O)N[C@@H](CCCN=C(N)N)C(=O)N[C@@H](Cc1ccccc1)C(N)=O` [FHFHLHFSATFIKHFIHRF], the MIC was 25.3 µM (≈ 62.5 µg/mL) in assay [9]; not below 101 µM in [10]; not below 50.6 µM in assay [11]; 50.6 µM (≈ 125 µg/mL) in assay [12]; 6.48 µM (≈ 16 µg/mL) in assay [13]; 25.3 µM (≈ 62.5 µg/mL) in [14]. For the same compound, in [15], the MIC is not below 50.6 µM.

With `CC[C@H](C)[C@H](NC(=O)[C@@H]1CCCN1C(=O)[C@H](CCCCN)NC(=O)[C@@H]1CCCN1C(=O)[C@H](CCCN=C(N)N)NC(=O)CNC(=O)[C@@H]1CCCN1C(=O)[C@H](Cc1ccccc1)NC(=O)[C@@H]1CCCN1C(=O)[C@H](CCCN=C(N)N)NC(=O)[C@@H]1CCCN1C(=O)[C@H](CCCN=C(N)N)NC(=O)CNC(=O)[C@@H]1CCCN1C(=O)[C@H](CO)NC(=O)[C@@H]1CCCN1C(=O)[C@H](Cc1c[nH]c2ccccc12)NC(=O)[C@H](CCCN=C(N)N)NC(=O)[C@@H](N)CO)C(=O)N[C@@H](Cc1ccccc1)C(=O)N[C@@H](CCCN=C(N)N)C(=O)N1CCC[C@H]1C(=O)N[C@@H](CCCN=C(N)N)C(=O)N1CCC[C@H]1C(=O)N[C@H]1CSSC[C@@H](C(=O)N[C@@H](CC(=O)O)C(=O)N[C@@H](CCCN=C(N)N)C(=O)N[C@@H](Cc2c[nH]c3ccccc23)C(=O)O)NC(=O)[C@@H]2CCCN2C(=O)[C@@H]2CSSC[C@H](NC(=O)[C@H](CC(N)=O)NC1=O)C(=O)N[C@@H](Cc1ccc(O)cc1)C(=O)N[C@@H](C)C(=O)N1CCC[C@H]1C(=O)N1CCC[C@H]1C(=O)N2` [SRWPSPGRPRPFPGRPKPIFRPRPCNCYAPPCPCDRW], the MIC in assay [16] was 0.8 µM (≈ 3.48 µg/mL); in assay [17] it was 6.3 µM (≈ 27.4 µg/mL); in assay [18] it was 6.25 µM (≈ 27.2 µg/mL); in [19] it was 12.5 µM (≈ 54.3 µg/mL); in [20], 6.3 µM (≈ 27.4 µg/mL); in assay [21] it was not below 50 µM.

As to `CC[C@H](C)[C@H](NC(=O)[C@H](CCCN=C(N)N)NC(=O)[C@@H]1CCCN1C(=O)[C@H](Cc1cnc[nH]1)NC(=O)[C@@H]1CCCN1C(=O)[C@@H]1CCCN1C(=O)[C@H](CCCN=C(N)N)NC(=O)[C@@H]1CCCN1C(=O)[C@H](CCC(N)=O)NC(=O)[C@@H]1CCCN1C(=O)[C@H](CC(C)C)NC(=O)[C@H](Cc1ccc(O)cc1)NC(=O)[C@@H](NC(=O)[C@@H]1CCCN1C(=O)[C@H](CCCN=C(N)N)NC(=O)[C@H](CC(N)=O)NC(=O)[C@H](CC(N)=O)NC(=O)CN)C(C)C)C(N)=O` [GNNRPVYLPQPRPPHPRI], the MIC in assay [22] was 1.23 µM (≈ 2.6 µg/mL); in assay [23], 3.7 µM (≈ 7.81 µg/mL); in assay [24], 1.9 µM (≈ 4 µg/mL); in assay [25], 7.59 µM (≈ 16 µg/mL); in assay [26], not below 60.7 µM; in assay [27], 1.85 µM (≈ 3.91 µg/mL). For the same compound, the MIC in assay [28] was 15.2 µM (≈ 32 µg/mL); in [29], 15.2 µM (≈ 32 µg/mL); in assay [30], 1.85 µM (≈ 3.91 µg/mL); in [31] it was 0.925 µM (≈ 1.95 µg/mL); in assay [32], not below 60.7 µM; in assay [33], 7.41 µM (≈ 15.6 µg/mL).

On to `CC(C)C[C@H](NC(=O)CNC(=O)[C@H](CCCCN)NC(=O)[C@H](CC(C)C)NC(=O)[C@H](CC(N)=O)NC(=O)[C@@H](N)CC(C)C)C(=O)N[C@@H](Cc1ccccc1)C(=O)N[C@@H](CCCCN)C(=O)N[C@@H](CCCCN)C(=O)N[C@H](C(=O)N[C@@H](C)C(=O)N[C@@H](CO)C(=O)N[C@@H](CC(C)C)C(=O)N[C@@H](CC(C)C)C(=O)N[C@H](C(=O)O)[C@@H](C)O)C(C)C` [LNLKGLFKKVASLLT], for which the MIC in [34] was not below 60 µM; in [35], more than 60 µM; in assay [36] it was 30 µM (≈ 49.4 µg/mL); in assay [37] it was 30 µM (≈ 49.4 µg/mL); in assay [38], 15 µM (≈ 24.7 µg/mL); in assay [19], 30 µM (≈ 49.4 µg/mL). Moreover, the MIC in assay [31] is 30 µM (≈ 49.4 µg/mL); in [39], 7.5 µM (≈ 12.3 µg/mL); in [20], 30 µM (≈ 49.4 µg/mL); in assay [8], 30 µM (≈ 49.4 µg/mL).

Values taken from DBAASP.
